Source: patent publication US20240317744A1, “Bicyclic Ureas As Kinase Inhibitors” (Incyte Corporation, priority 2023, published 2024)

Legend:
[1] = target: catalytic domain (JH1, amino acids 808-1132) of human JAK2 (Homo sapiens, UniProt O60674); assay: JAK2 HTRF Enzyme Activity Assay; format: biochemical; conditions: ATP 30 µM, 60 minutes at 25° C.; read-out: V617F ENZ 30 UM
[2] = target: T1, pseudo-kinase domain (JH2, amino-acids 536-812) of human V617F mutant JAK2 (Homo sapiens, UniProt O60674, F794H/V617F/W659A/W777A); assay: JAK2 LanthaScreen JH2-V617F Binding Assay; conditions: JAK2 JH2-V617F 0.26 nM, 50 nM tracer, 1 hour at 25° C.; read-out: JH2 BIND V617F
T1 construct: pseudo-kinase domain (JH2, amino-acids 536-812 with 3 surface mutations W659A, W777A, F794H); His (C); purchased BPS Bioscience 79498; host or cells: baculovirus expression system
Procedure: Example C. JAK2 LanthaScreen JH2-V617F Binding Assay
JAK2 JH2-V617F binding assay utilizes pseudo-kinase domain (JH2, amino-acids 536-812 with 3 surface mutations W659A, W777A, F794H) of human V617F mutant JAK2 expressed as C-terminal His-Avi-tagged, biotinylated protein in a baculovirus expression system (BPS Bioscience, Catalog #79498). The assay was conducted in black 384-well polystyrene plates in a final reaction volume of 20 μL. JAK2 JH2-V617F (0.26 nM) was incubated with compounds (100 nL serially diluted in DMSO) in the presence of 50 nM Fluorescent JAK2-JH2 Tracer (MedChem Express Catalog #HY-102055) and 0.25 nM Streptavidin-Tb cryptate (Cisbio Part #610SATLB) in assay buffer (50 mM Tris, pH=7.5, 10 mM MgCl2, 0.01% Brij-35, 0.1% BSA, 1 mM EGTA, 5% Glycerol and 5 mM DTT). Non-specific binding was accessed in the presence of 2 mM ATP. After incubation for 1 hour at 25° C., LanthaScreen signals were read on a PHERAstar FS plate reader (BMG LABTECH). Data was analyzed with IDBS XLfit and GraphPad Prism 5.0 software using a four parameter dose response curve to determine IC50 for each compound.

catalytic domain (JH1, amino acids 808-1132) of human JAK2, sequence (O60674 808-1132 limits assumed): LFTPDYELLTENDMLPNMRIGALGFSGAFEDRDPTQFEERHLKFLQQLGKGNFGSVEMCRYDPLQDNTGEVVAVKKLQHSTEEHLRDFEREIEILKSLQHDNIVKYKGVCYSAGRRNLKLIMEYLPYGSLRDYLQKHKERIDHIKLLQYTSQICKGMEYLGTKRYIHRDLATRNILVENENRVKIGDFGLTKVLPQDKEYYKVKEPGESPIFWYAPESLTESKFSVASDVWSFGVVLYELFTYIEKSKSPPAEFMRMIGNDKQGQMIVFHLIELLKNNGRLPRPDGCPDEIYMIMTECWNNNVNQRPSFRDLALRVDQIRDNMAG
T1 sequence (O60674 536-812 V617F/W659A/W777A/F794H): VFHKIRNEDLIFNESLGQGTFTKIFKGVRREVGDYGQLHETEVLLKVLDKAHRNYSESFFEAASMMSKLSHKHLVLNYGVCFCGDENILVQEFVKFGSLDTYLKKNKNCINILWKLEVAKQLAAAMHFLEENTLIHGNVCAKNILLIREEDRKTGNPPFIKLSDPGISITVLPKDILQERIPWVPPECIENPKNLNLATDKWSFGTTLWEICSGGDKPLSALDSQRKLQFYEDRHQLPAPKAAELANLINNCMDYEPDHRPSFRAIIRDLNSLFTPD

[2H]C([2H])([2H])n1c(=O)n([C@@H]2CC[C@@]([2H])(NC(=O)OC)C2)c2cc(Nc3cc(-c4cnccc4C(F)(F)F)cc(-c4ncc(C(C)(C)O)s4)n3)ncc21 [Example 164, Methyl ((1R,3R)-3-(6-((6′-(5-(2-hydroxypropan-2-yl)thiazol-2-yl)-4-(trifluoromethyl)-[3,4′-bipyridin]-2′-yl)amino)-3-(methyl-d3)-2-oxo-2,3-dihydro-1H-imidazo[4,5-c]pyridin-1-yl)cyclopentyl-1-d)carbamate]
IC50 [1]: > 1000 nM | IC50 [2]: ≤ 10 nM

[2H]C([2H])([2H])n1c(=O)n([C@@H]2CC[C@](C)(NC(C)=O)C2)c2cc(Nc3cc(C(C)(C)O)cc(-c4cnc(OC)s4)n3)ncc21 [Example 152, N-((1S,3R)-3-(6-((4-(2-Hydroxypropan-2-yl)-6-(2-methoxythiazol-5-yl)pyridin-2-yl)amino)-3-(methyl-d3)-2-oxo-2,3-dihydro-1H-imidazo[4,5-c]pyridin-1-yl)-1-methylcyclopentyl)acetamide]
IC50 [1]: > 1000 nM | IC50 [2]: ≤ 10 nM

[2H]C1(NC(=O)OC)CC[C@@H](n2c(=O)n(C([2H])([2H])[2H])c3cnc(Nc4ccc5c(n4)c(-c4cnn(C(F)(F)F)c4)nn5CC(C)(C)O)cc32)C1 (single isomer, unassigned) [Example 124]
IC50 [1]: > 1000 nM | IC50 [2]: ≤ 10 nM

[2H]C1(NC(=O)OC)CC[C@@H](n2c(=O)n(C([2H])([2H])[2H])c3cnc(Nc4ccc5c(n4)c(-c4cnn(C(F)(F)F)c4)cn5C4CCOCC4)cc32)C1 (stereo partly drawn) [Example 111, Methyl ((3R)-3-(3-(methyl-d3)-2-oxo-6-((1-(tetrahydro-2H-pyran-4-yl)-3-(1-(trifluoromethyl)-1H-pyrazol-4-yl)-1H-pyrrolo[3,2-b]pyridin-5-yl)amino)-2,3-dihydro-1H-imidazo[4,5-c]pyridin-1-yl)cyclopentyl-1-d)carbamate]
IC50 [1]: > 1000 nM | IC50 [2]: ≤ 10 nM

[2H]C([2H])([2H])n1c(=O)n(C23CCC(NC(C)=O)(CC2)CC3)c2cc(Nc3cc(C(C)(C)O)cc(-c4ncc(C(F)(F)F)s4)n3)ncc21 [Example 140, N-(4-(6-((4-(2-Hydroxypropan-2-yl)-6-(5-(trifluoromethyl)thiazol-2-yl)pyridin-2-yl)amino)-3-(methyl-d3)-2-oxo-2,3-dihydro-1H-imidazo[4,5-c]pyridin-1-yl)bicyclo[2.2.2]octan-1-yl)acetamide]
IC50 [1]: > 1000 nM | IC50 [2]: ≤ 10 nM

[2H]C([2H])([2H])n1c(=O)n([C@@H]2CC[C@]([2H])(NC(=O)OC)C2)c2cc(Nc3cc(C4CCOCC4)cc(-c4ncc(C(C)(C)O)s4)n3)ncc21 [Example 163, Methyl ((1S,3R)-3-(6-((6-(5-(2-hydroxypropan-2-yl)thiazol-2-yl)-4-(tetrahydro-2H-pyran-4-yl)pyridin-2-yl)amino)-3-(methyl-d3)-2-oxo-2,3-dihydro-1H-imidazo[4,5-c]pyridin-1-yl)cyclopentyl-1-d)carbamate]
IC50 [1]: 500 to 1000 nM | IC50 [2]: ≤ 10 nM

[2H]C([2H])([2H])n1c(=O)n([C@H]2CC[C@@](C)(NC(=O)C3CC3)CC2)c2cc(Nc3ccc4c(n3)c(-c3cnn(C(F)(F)F)c3)nn4[C@H]3CC[C@H](O)CC3)ncc21 [Example 126, N-((1s,4s)-4-(6-((1-((1r,4r)-4-Hydroxycyclohexyl)-3-(1-(trifluoromethyl)-1H-pyrazol-4-yl)-1H-pyrazolo[4,3-b]pyridin-5-yl)amino)-3-(methyl-d3)-2-oxo-2,3-dihydro-1H-imidazo[4,5-c]pyridin-1-yl)-1-methylcyclohexyl)cyclopropanecarboxamide]
IC50 [1]: > 1000 nM | IC50 [2]: ≤ 10 nM

[2H]C([2H])([2H])n1c(=O)n([C@@H]2CC[C@@]([2H])(NC(=O)OC)C2)c2cc(Nc3cc(C(C)(C)O)c4nc(C)n(-c5cnn(C(F)F)c5)c4n3)ncc21 [Example 169, Methyl ((1R,3R)-3-(6-((3-(1-(difluoromethyl)-1H-pyrazol-4-yl)-7-(2-hydroxypropan-2-yl)-2-methyl-3H-imidazo[4,5-b]pyridin-5-yl)amino)-3-(methyl-d3)-2-oxo-2,3-dihydro-1H-imidazo[4,5-c]pyridin-1-yl)cyclopentyl-1-d)carbamate]
IC50 [1]: > 1000 nM | IC50 [2]: ≤ 10 nM

[2H]C([2H])([2H])n1c(=O)n([C@@H]2CC[C@]([2H])(NC(=O)OC)C2)c2cc(Nc3cc(C(C)(C)O)cc(-c4ncc(C(F)(F)F)s4)n3)ncc21 [Example 159, Methyl ((1S,3R)-3-(6-((4-(2-hydroxypropan-2-yl)-6-(5-(trifluoromethyl)thiazol-2-yl)pyridin-2-yl)amino)-3-(methyl-d3)-2-oxo-2,3-dihydro-1H-imidazo[4,5-c]pyridin-1-yl)cyclopentyl-1-d)carbamate]
IC50 [1]: > 1000 nM | IC50 [2]: ≤ 10 nM

[2H]C1(NC(=O)OC)CC[C@@H](n2c(=O)n(C([2H])([2H])[2H])c3cnc(Nc4ccc5c(n4)c(-c4cnn(C(F)(F)F)c4)cn5C4(C#N)CC4)cc32)C1 (stereo partly drawn) [Example 113, Methyl ((3R)-3-(6-((1-(1-cyanocyclopropyl)-3-(1-(trifluoromethyl)-1H-pyrazol-4-yl)-1H-pyrrolo[3,2-b]pyridin-5-yl)amino)-3-(methyl-d3)-2-oxo-2,3-dihydro-1H-imidazo[4,5-c]pyridin-1-yl)cyclopentyl-1-d)carbamate]
IC50 [1]: > 1000 nM | IC50 [2]: ≤ 10 nM

[2H]C([2H])([2H])n1c(=O)n([C@@H]2CC[C@@H](NC(=O)OC)C2)c2cc(Nc3cc(C4CCOCC4)cc(-c4ncc(C(C)(C)O)s4)n3)ncc21 [Example 161, Methyl ((1R,3R)-3-(6-((6-(5-(2-hydroxypropan-2-yl)thiazol-2-yl)-4-(tetrahydro-2H-pyran-4-yl)pyridin-2-yl)amino)-3-(methyl-d3)-2-oxo-2,3-dihydro-1H-imidazo[4,5-c]pyridin-1-yl)cyclopentyl)carbamate]
IC50 [1]: > 1000 nM | IC50 [2]: ≤ 10 nM

[2H]C([2H])([2H])n1c(=O)n([C@@H]2CC[C@](C)(NC(C)=O)C2)c2cc(Nc3cc(C(C)(C)O)cc(-c4cnc(OCC)s4)n3)ncc21 [Example 153, N-((1S,3R)-3-(6-((6-(2-Ethoxythiazol-5-yl)-4-(2-hydroxypropan-2-yl)pyridin-2-yl)amino)-3-(methyl-d3)-2-oxo-2,3-dihydro-1H-imidazo[4,5-c]pyridin-1-yl)-1-methylcyclopentyl)acetamide]
IC50 [1]: > 1000 nM | IC50 [2]: ≤ 10 nM

[2H]C([2H])([2H])c1cc(Nc2cc3c(cn2)n(C([2H])([2H])[2H])c(=O)n3[C@@H]2CC[C@@]([2H])(NC(=O)OC)C2)nc(-c2ncc(C(C)(C)O)s2)c1 [Example 150, Methyl ((1R,3R)-3-(6-((6-(5-(2-hydroxypropan-2-yl)thiazol-2-yl)-4-(methyl-d3)pyridin-2-yl)amino)-3-(methyl-d3)-2-oxo-2,3-dihydro-1H-imidazo[4,5-c]pyridin-1-yl)cyclopentyl-1-d)carbamate]
IC50 [1]: > 1000 nM | IC50 [2]: ≤ 10 nM

[2H]C([2H])([2H])n1c(=O)n([C@@H]2CC[C@](C)(NC(=O)C3CC3)C2)c2cc(Nc3ccc4nn([C@H]5C[C@@H](O)C5)c(-c5cnn(C(F)(F)F)c5)c4n3)ncc21 [Example 121, N-((1S,3R)-3-(6-((2-((1s,3s)-3-Hydroxycyclobutyl)-3-(1-(trifluoromethyl)-1H-pyrazol-4-yl)-2H-pyrazolo[4,3-b]pyridin-5-yl)amino)-3-(methyl-d3)-2-oxo-2,3-dihydro-1H-imidazo[4,5-c]pyridin-1-yl)-1-methylcyclopentyl)cyclopropanecarboxamide]
IC50 [1]: > 1000 nM | IC50 [2]: ≤ 10 nM

[2H]C([2H])([2H])n1c(=O)n(C23CCC(C(N)=O)(CC2)CC3)c2cc(Nc3cc(C(C)(C)O)cc(-c4ncc(C(F)(F)F)s4)n3)ncc21 [Example 139, 4-(6-((4-(2-Hydroxypropan-2-yl)-6-(5-(trifluoromethyl)thiazol-2-yl)pyridin-2-yl)amino)-3-(methyl-d3)-2-oxo-2,3-dihydro-1H-imidazo[4,5-c]pyridin-1-yl)bicyclo[2.2.2]octane-1-carboxamide]
IC50 [1]: > 1000 nM | IC50 [2]: ≤ 10 nM

[2H]C([2H])([2H])n1c(=O)n(C23CCC(NC(C)=O)(CC2)C3)c2cc(Nc3cc(C(C)(C)O)cc(-c4ncc(C(F)(F)F)s4)n3)ncc21 [Example 142, N-(4-(6-((4-(2-Hydroxypropan-2-yl)-6-(5-(trifluoromethyl)thiazol-2-yl)pyridin-2-yl)amino)-3-(methyl-d3)-2-oxo-2,3-dihydro-1H-imidazo[4,5-c]pyridin-1-yl)bicyclo[2.2.1]heptan-1-yl)acetamide]
IC50 [1]: > 1000 nM | IC50 [2]: ≤ 10 nM

[2H]C1(NC(=O)OC)CC[C@@H](n2c(=O)n(C([2H])([2H])[2H])c3cnc(Nc4ccc5c(n4)c(-c4cnn(C(F)(F)F)c4)nn5CC(C)(C)O)cc32)C1 (single isomer, unassigned) [Example 125]
IC50 [1]: > 1000 nM | IC50 [2]: ≤ 10 nM
